Measurements reported in patent publication US4579947A, “Substituted phenylalkylpiperazinylpropyl (ureas or thioureas) useful for treatment of immunological, inflammatory and allergic disorder” (Boehringer Ingelheim Pharmaceuticals, Inc., priority 1984, dated 1986).
Counter-ions that a name gives are not always drawn.

Legend:
[1] = tested on: human leukocytes (basophils); test: Inhibition of human leukocyte (basophil) histamine release in vitro (rabbit anti-human IgE); type: cell-based; conditions: Leukocyte, 1 h, Table A, 60 minutes at 37° C., Int. = interference with test procedure, read-out: Inhibition IC50 (histamine release from human leukocytes (basophils))
Procedure: Separation of Leukocytes: A modification of the method of L. Lichtenstein and A. Osler, J.Exp.Med. 120, 507 (1964) was used. Heparinized human blood (80-100 ml) is mixed with 20 ml of saline (0.2%) containing 0.6 gm of dextrose and 1.2 gm dextran in propylene centrifuge tubes. The mixture is kept at ambient temperature for 60-90 minutes to allow the separation of erythrocytes from the platelet-leukocyte-rich supernate. The supernate is removed and centrifuged for 8 minutes at 110×g in cold. The leukocyte pellet is washed 2× with Tris buffer and finally suspended in 150-180 ml Tris-ACM buffer at 1-2×10^6 cells/ml. 2. Reaction Mixture: The reaction is carried out in 12×75 mm plastic tubes at a total volume of 1.25 ml. The reaction medium includes 0.05 ml rabbit anti-human IgE (the antigen), 0.2 ml of the test compound in water at concentrations ranging from 10-1000 μM, and 1.0 ml of the leukocyte suspension. The reaction mixture is incubated in a 37° C. shaking water bath for 60 minutes. Upon completion of the reaction, the tubes are centrifuged and the supernatants collected. The protein is removed from the supernatants by precipitation with 0.2 ml of 8% perchloric acid. 3. Histamine Assay: Histamine release is measured by the automated fluorometric method of W. Siraganian and W. Hook in Chapter 102 of the Manual of Clinical Immunology, 2nd Edition, Edited by R. Rose and H. Friedman, Published by the American Society for Microbiology, Washington, D.C. 1980. Percent inhibition is calculated as follows: [formula] The concentration which causes a 50 percent inhibition (IC50) of histamine release is interpolated from a plot of percent inhibition versus logarithm of drug concentration.

[2] = tested on: isolated guinea pig ileum; test: Antagonism of histamine-induced contraction of isolated guinea pig ileum; type: cell-based; conditions: Cavia porcellus; Table C; histamine final concentration 0.2 μg/ml; read-out: Inhibition IC50 (histamine-induced contraction of isolated guinea pig ileum)
Procedure: The antagonism of the effects of histamine on the contraction of isolated guinea pig ileum by the compounds of formula I can be determined by the procedure of G. Possanza, A. Bauen, and P. Stewart, Int. Arch. Allergy Appl. Immunol., 49, 289 (1975). The degree of inhibition is determined as the difference between the contraction caused by histamine (final concentration 0.2 μg/ml) alone and that seen in the presence of both histamine and the test compound. The inhibitory activity of the test compound is expressed as that concentration of the compound which causes a 50% reduction of the contractile response (IC50).

Structure (SMILES) | IC50 [1] [µM] | IC50 [2] [µM]
CNC(=O)NCCCN1CCN(Cc2ccc(Cl)cc2)CC1 [Example 2, 1-{3-[4-(4-Chlorobenzyl)piperazin-1-yl]propyl}-3-methylurea dihydrochloride] | 300 | 0.63
CCCCNC(=O)NCCCN1CCN(Cc2ccc(Cl)cc2)CC1 [Example 3, 1-{3-[4-(4-Chlorobenzyl)piperazin-1-yl]propyl}-3-n-butylurea dihydrochloride hemihydrate] | 50 | 0.07
O=C(NCCCN1CCN(Cc2ccc(F)cc2)CC1)NC1CCCCC1 [Example 6, 1-{3-[4-(4-Fluorobenzyl)piperazin-1-yl]propyl}-3-cyclohexylurea dihydrochloride monohydrate] | 50 | 0.11
O=C(NCCCN1CCN(Cc2ccccc2)CC1)NC1CCCCC1 [Example 7, 1-{3-(4-Benzylpiperazin-1-yl)propyl]-3-cyclohexylurea dihydrochloride] | 240 | 0.32
O=C(NCCCN1CCN(Cc2ccccc2)CC1)Nc1ccccc1 [Example 8, 1-[3-(4-Benzylpiperazin-1-yl)propyl]-3-phenylurea] | 400 | 0.21
O=C(NCCCN1CCN(Cc2ccc(Cl)cc2)CC1)Nc1ccc(Cl)cc1 [Example 10, 1-{3-[4-(4-Chlorobenzyl)piperazin-1-yl]propyl}-3-(4-chlorophenyl)urea hydrochloride] | 30 | 0.15

The remaining lines, values ahead:

IC50 [1] [µM] | IC50 [2] [µM] | Structure (SMILES)
37 | 0.065 | Cc1ccc(NC(=O)NCCCN2CCN(Cc3ccc(Cl)cc3)CC2)cc1 [Example 11, 1-{3-[4-(4-Chlorobenzyl)piperazin-1-yl]propyl}-3-(4-methylphenyl)urea dihydrochloride monohydrate]
80 | 0.015 | COc1ccc(NC(=O)NCCCN2CCN(Cc3ccc(Cl)cc3)CC2)cc1 [Example 12, 1-{3-[4-(4-Chlorobenzyl)piperazin-1-yl]-propyl}-3-(4-methoxyphenyl)urea hydrochloride]
20 | 0.06 | O=C(NCCCN1CCN(Cc2ccc(Cl)cc2)CC1)Nc1ccc(F)cc1 [Example 15, 1-{3-[4-(4-Chlorobenzyl)piperazin-1-yl]propyl}-3-(4-fluorophenyl)urea dihydrochloride monohydrate]
30 | 0.018 | O=C(NCCCN1CCN(Cc2ccc(Cl)cc2)CC1)Nc1ccc([N+](=O)[O-])cc1 [Example 16, 1-{3-[4-(4-Chlorobenzyl)piperazin-1-yl]propyl}-3-(4-nitrophenyl)urea dihydrochloride]
13 | 0.15 | O=C(NCCCN1CCCN(Cc2ccc(Cl)cc2)CC1)NC1CCCCC1 [Example 17, 1-{3-[4-(4-Chlorobenzyl)homopiperazin-1-yl]propyl}-3-cyclohexylurea dihydrochloride]
15 | 0.55 | O=C(NCCCN1CCCN(Cc2ccc(Cl)cc2)CC1)Nc1ccccc1 [Example 18, 1-{3-[4-(4-Chlorobenzyl)homopiperazin-1-yl]propyl}-3-phenylurea dihydrochloride]
26 | 0.11 | S=C(NCCCN1CCN(Cc2ccc(Cl)cc2)CC1)NC1CCCCC1 [Example 19, 1-{3-[4-(4-Chlorobenzyl)piperazin-1-yl]propyl}-3-cyclohexylthiourea]
37 | 0.1 | S=C(NCCCN1CCN(Cc2ccc(Cl)cc2)CC1)Nc1ccccc1 [Example 20, 1-{3-[4-(4-Chlorobenzyl)piperazin-1-yl]propyl}-3-phenylthiourea]
35 |  | CCOc1ccc(NC(=O)NCCCN2CCN(Cc3ccc(Cl)cc3)CC2)cc1 [Example 30, 1-{3-[4-(4-Chlorobenzyl)piperazin-1-yl]propyl}-3-(4-ethoxyphenyl)urea dihydrochloride]
